A short description of the data set: Characteristics of Component B (isoelectric point; pH and osmotic pressure in 0.1 mol/L aqueous solution). The data set is classed as physicochemical. The settings on record: for Isoelectric point: Component B; for Osmotic pressure / pH: Component B in 0.1 mol/L aqueous solution. From the text:
As the Component A, polyhexamethylene biguamide (PHMB) was used. As the Component B (tonicity adjusting agent), different kinds of the amino-acid-based components having different isoelectric points as indicated in the following TABLE 2 were used. […] As the chelating agent, disodium salt of ethylenediamine tetraacetic acid (EDTA·2Na) was used.

Regarding `NCCS(=O)(=O)O` [taurine], the Isoelectric point came to 4.50, the Osmotic pressure was determined as 106 mOsm/kg and the pH came to 5.19.
`O=C(O)[C@@H]1C[C@@H](O)CN1` [L-oxyproline]: the Isoelectric point was 5.83, the Osmotic pressure is on record as 105 mOsm/kg and the pH is given as 5.87.
For `N[C@@H](CO)C(=O)O` [L-serine], in that order: 5.68, 105 mOsm/kg and 6.12.
In the case of `N=C(N)NCCC[C@H](N)C(=O)O` [arginine], the Isoelectric point is listed as 10.76, the Osmotic pressure came out at 100 mOsm/kg and the pH was determined as 11.20.
For `CC(N)C(=O)O` (racemic) [DL-alanine], the Isoelectric point was determined as 6.00, the Osmotic pressure turned out to be 104 mOsm/kg and the pH amounted to 6.05.
For the compound `Cl.NCCCC[C@H](N)C(=O)O` [lysine hydrochloride], the Isoelectric point came out at 9.74, the Osmotic pressure was determined as 105 mOsm/kg and the pH was 5.91.
`O=C(O)[C@@H]1CCCN1` [L-proline] had an Isoelectric point of 6.30, an Osmotic pressure of 104 mOsm/kg and a pH of 5.90.
As for `Cl.N[C@@H](Cc1c[nH]cn1)C(=O)O` [L-histidine hydrochloride], the Isoelectric point was determined as 7.59, the Osmotic pressure is 105 mOsm/kg and the pH turned out to be 5.80.
Consider `NCCCCCC(=O)O` [ε-aminocaproic acid], for which the Isoelectric point is 7.60, the Osmotic pressure came to 106 mOsm/kg and the pH was 7.54.
For `N[C@@H](Cc1ccccc1)C(=O)O` [L-phenylalanine], in that order: 5.48, 105 mOsm/kg and 6.14.
As for `C[C@@H](O)[C@H](N)C(=O)O` [L-threonine], the Isoelectric point is on record as 6.16, the Osmotic pressure is listed as 102 mOsm/kg and the pH was 5.88.
For `N[C@@H](CS)C(=O)O` [L-cysteine], in that order: 5.07, 102 mOsm/kg and 5.86.
Regarding `CC(C)[C@H](N)C(=O)O` [L-valine], the Isoelectric point was determined as 5.96, the Osmotic pressure was found to be 103 mOsm/kg and the pH is given as 7.83.
Compound `NCCCC(=O)O` [γ-aminobutyric acid] had an Isoelectric point of 7.30, an Osmotic pressure of 107 mOsm/kg and a pH of 5.96.
`Cl.N=C(N)NCCC[C@H](N)C(=O)O` [arginine hydrochloride] yielded an Isoelectric point of 10.76, an Osmotic pressure of 181 mOsm/kg and a pH of 5.62.

The values are drawn from patent US20030153622A1, “Ophthalmic solution and contact lens solution” (MENICON CO., LTD., priority 2001, published 2003).
